Results on one compound are retold here after patent US20160324992A1, “IDENTIFICATION AND TREATMENT OF VULNERABLE PLAQUES” (OTTAWA HEART INSTITUTE RESEARCH CORPORATION, priority 2015, published 2016).

Experiment [1] has as its system PGAM5. As to conditions: macrophages, DPI.
Experiment [2] concerns human MLKL promoter. Particulars: RAW macrophages, 50 uM DPI pre-treatment, oxLDL 6 or 24 h. The protocol: (§1) Promoter Luciferase Assay. Luciferase reporter constructs containing the human MLKL and RIP3 promoters were purchased from SwitchGear Genomics (Carlsbad, CA). RAW264.7 (ATCC) macrophages were plated in 24-well plates in 10% FBS DMEM and transfected using Lipofectamine 2000 (Life Technologies) with MLKL-promoter or RIP3-promoter plasmids (renilla-based luciferase reporter) together with pGL3 basic (firefly-based reporter, Promega) to normalize for transfection efficiency. Twenty-four hours after transfection, cells were treated with or without 100 μg/ml oxLDL as above, for an additional 24 hours. Cells were harvested in lx passive lysis buffer and luciferase measured using the Dual Luciferase Assay (Promega) according to manufacturer's instructions. All experiments were performed in quadruplicate technical replicates at least 3 times.
(§2) Promoter Luciferase Assay. Luciferase reporter constructs containing the human MLKL and RIP3 promoters were purchased from SwitchGear Genomics (Carlsbad, CA). […] Cells were harvested in 1× passive lysis buffer and luciferase measured using the Dual Luciferase Assay (Promega) according to manufacturer's instructions. […]

In experiment [3] the test system is human RIP3 promoter. As to conditions: RAW macrophages, 50 uM DPI pre-treatment, oxLDL 6 or 24 h. As for the experimental part: as §1, §2
Experiment [4] concerns RIP3. Particulars: BMDMs, pre-treatment with 50 μM DPI. The protocol: (§3) RNA isolation and quantitative real-time PCR. BMDMs were treated with control media with or without oxLDL or oxLDL+zVAD.fmk for the indicated time points with or without 1 h pre-treatment with 50 μM DPI. Alternatively, BMDMs were polarized to M0, M1 or M2 prior to RNA isolation, as described above. Total RNA was isolated using TRIzol reagent (Invitrogen) as per manufacturer's instructions and cDNA was synthesized using iScript Reverse Transcription kit (BioRad™). Quantitative real-time PCR was performed in triplicate using either the Sso Advanced Universal SYBR Green Supermix (Biorad) or Taqman™ Gene Expression Assay and mRNA level of target genes was normalized to HPRT or β-actin house keeping genes.
(§4) RNA isolation and quantitative real-time PCR. BMDMs were treated with control media with or without oxLDL or oxLDL+zVAD.fmk for the indicated time points with or without 1 h pre-treatment with 50 uM DPI. Alternatively, BMDMs were polarized to M0, M1 or M2 prior to RNA isolation, as described above. […] Quantitative real-time PCR was performed in triplicate using either the Sso Advanced Universal SYBR Green Supermix (Biorad) or Taqman® Gene Expression Assay and mRNA level of target genes was normalized to HPRT or β-actin house keeping genes.

Experiment [5] relates to MLKL. Particulars: BMDMs, pre-treatment with 50 μM DPI. As for the experimental part:
as §3, §4

Experiment [6] concerns reactive oxygen species (ROS). As to conditions: BMDMs pre-incubated with 50 μM DPI, oxLDL or oxLDL+zVAD.fmk 3 h. The protocol: Measurement of Reactive Oxygen Species (ROS). BMDMs were pre-incubated with DPI for 30 minutes followed by the cell permeant reagent 2′, 7′-dichloroflurescin diacetate (DCFDA) fluorescent dye for 1 h. Cells were then treated with oxLDL or oxLDL+zVAD.fmk and fluorescence was measured at 3 h and 24 h as per manufacturers' instructions (Abcam, ab113851).

Consider `c1ccc2c(c1)[I+]c1ccccc1-2` [DPI, diphenyleneiodonium], for which the “oxLDL-induced PGAM5 expression (in words)” value in experiment [1] is on record as “similarly inhibited”. In experiment [2], the “oxLDL-induced MLKL promoter activity (in words)” value was “significantly blunted”. For the same compound, the “oxLDL-induced RIP3 promoter activity (in words)” value in experiment [3] is reported as “significantly blunted”. Besides, the “induction of RIP3 mRNA expression by oxLDL and oxLDL+zVAD.fmk (in words)” value in experiment [4] is “inhibited”. Further, in experiment [5], the “induction of MLKL mRNA expression by oxLDL and oxLDL+zVAD.fmk (in words)” value is “inhibited”. The “oxLDL-induced production of ROS (in words)” value in experiment [6] is given as “inhibited”.
